Experimental findings from patent publication US20250122193A1, “NOVEL PYRIDOCARBAZOLIUM COMPOUNDS AND MEDICAL USES THEREOF” (MyCural Therapeutics, priority 2021, published 2025) are described below.

SMILES strings stand for the structures. pKd: −log10 of the molar value.

This assay has as its target T1, recombinant bHLHZip domain of the MYC protein (Homo sapiens, UniProt P01106).
T1 construct: using the recombinant bHLHZip domain of the MYC protein; 6xHis (N); made in house; host or cells: E. coli BL21 (DE3)
In words: surface plasmon resonance (SPR), MYC bHLHZip. Type of assay: binding. The method, then:
FIG. 1: MYCMI-7 (Compound Example 1) inhibits the MYC:MAX interaction in cells, bind MYC in vitro, and blocks MYC function. A) Molecular structure of MYCMI-7. B-E) split Gaussia luciferase (GLuc) assay. MYC or MYCN and MAX Gluc constructs were co-transfected into HeLa cells together with a firefly luciferase vector. 24 hours post transfection cells were treated with compounds, and after another 17-24 hours cells were harvested and both GLuc and firefly luciferase activities were measured. The mean of three different experiments is shown. Treatment with: B) 5 μM of MYCMI-7, 64 μM 10058-F4 or 5 μM JQ1, respectively, C) 6.5 μM MYCMI-7 on cells expressing MYC:MAX GLuc vs. GCN4:GCN4 GLuc, D) 5 μM MYCMI-7 and 5 μM ellipticine. E) 5 μM MYCMI-7 for various time points. F) in situ proximity ligation assay (isPLA). […] MYC:GAL4 was used as negative control in the isPLA assay. G) Quantification of isPLA dots. (H) Co-immunoprecipitation (co-IP) of endogenous MYC and MAX proteins from MCF7 cells after treatment with 5 μM MYCMI-7 at various times. IP=immunoprecipitation; W=western blot. […] J) MYC target gene ODC1 expression after treatment with 5 μM MYCMI-7, quantified by qPCR. […] L) Recombinant MYC bHLHZip protein domain immobilized onto a CM5 chip was subjected to various concentrations of MYCMI-7 and the complex of MYCbHLHZip-MYCMI-7 was measured as response units by SPR. […]
A general note: In SPR one partner is held on a chip, and binding of the other changes the refractive index at the surface.

T1 sequence (P01106 368-454 limits assumed): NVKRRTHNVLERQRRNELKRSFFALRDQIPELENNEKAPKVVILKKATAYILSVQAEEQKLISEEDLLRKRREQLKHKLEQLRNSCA

Consider `CCN(CC)CC[n+]1ccc2c(C)c3[nH]c4ccccc4c3c(C)c2c1` [MYCMI-7, 2-(5,11-Dimethyl-6H-25-pyrido[4,3-b]carbazol-2-yl)-N,N-diethylethanamine bromide], for which the “binding to recombinant MYC by SPR” value is “binds directly to MYC”. For the setting “SPR, Langmuir 1:1 analysis”, the negative-log Kd (pKd) is around 5.40.

What is called pKd is the Kd on a negative log10 scale, so that one unit is a factor of ten.
